For the assay, the target named is T1, human bradykinin B2 receptor (hB2R) (Homo sapiens, UniProt P30411).
T1 sequence (P30411 1-391): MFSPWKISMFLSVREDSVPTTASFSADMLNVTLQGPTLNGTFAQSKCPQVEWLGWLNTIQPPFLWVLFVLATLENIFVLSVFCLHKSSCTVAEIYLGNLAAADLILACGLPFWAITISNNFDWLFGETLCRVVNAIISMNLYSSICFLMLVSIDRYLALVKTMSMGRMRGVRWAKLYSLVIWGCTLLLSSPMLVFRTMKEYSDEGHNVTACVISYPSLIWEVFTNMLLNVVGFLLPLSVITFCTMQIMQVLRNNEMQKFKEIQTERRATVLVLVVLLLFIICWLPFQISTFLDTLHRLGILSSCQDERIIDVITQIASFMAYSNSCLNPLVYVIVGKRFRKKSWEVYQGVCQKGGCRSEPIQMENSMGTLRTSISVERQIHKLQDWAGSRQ
The assay is described as follows: cell-based human bradykinin B2 receptor calcium mobilization (hB2R-CaM) assay. The note with it: antagonistic activity; HTS041C cells; bradykinin at EC80; 25 min preincubation at 37° C.; read-out: IC50-value towards human bradykinin B2 receptor (hB2R). From the text:
The following cell-based human bradykinin B2 receptor calcium mobilization (hB2R-CaM) assay was used to determine the antagonistic activity of compounds selected from the example compounds Nos. 1 to 13 towards human bradykinin B2 receptor (hB2R). The assay is defined herein as a standard in vitro B2 receptor activity assay, which can be used to determine IC50 values of the compounds according to the present invention, e. g. the compounds shown in Examples 1-4.
The antagonistic activity of compounds according to the present invention was investigated with the hB2R-CaM assay using the B2 Bradykinin Receptor Stable Cell Line HTS041C (Eurofins, St. Charles MO) and the FLIPR Calcium 6 Assay Kit (Molecular Devices, Wokingham, UK) according to the instructions of the providers. CaM assay measurements were performed with a Flexstation 3 System (Molecular Devices) which allows the precise addition of compounds (B2R antagonists) and bradykinin (B2R agonist) to the cells and adjacent continuous recording of the time-dependent CaM assay signals.
HTS041C cells were cultured in high glucose DMEM cell culture medium (Lonza) supplemented with 10% heat-inactivated FBS (PAN Biotech), 10 mM HEPES, Penicillin/Streptomycin (200 U/mL, 200 μg/mL), 1× non-essential amino acids (Lonza), and 250 μg/mL G418 (Invivogen) in cell incubator at 37° C. in a 5% CO2 atmosphere. One day before the CaM assay experiments cells were seeded in 200 μL DMEM cell culture medium with reduced FBS (5%) and without G418 on clear bottom black 96 well plates (ThermoFisher #165305). Cell starvation was carried out by incubation (37° C., 5% CO2) of 70.000 cells/well for 24 h to 28 h. Immediately prior calcium dye-loading the medium was carefully aspirated and cells were washed with Hank's balanced salt solution (HBSS, Gibco) containing Ca^2+, Mg^2+ and 20 mM HEPES, adjusted to pH 7.4 (HBSS+).
For calcium dye-loading one FLIPR 6 assay aliquot was dissolved in 20 mL HBSS+. 150 μL of the dye loading solution was added to cell plate and incubated for 120 min at 37° C. and 5% CO2. After dye loading the cell plate was immediately transferred to the pre-warmed (37° C.) Flexstation 3 System for CaM assaying.
Freshly prepared compound (B2 receptor antagonists) dilution series (8 pt, n=2) and bradykinin (B2 receptor agonist) solution in non-binding plates (Costar) were transferred to the Flexstation System (source plate) shortly before starting the experiment. Bradykinin was added in EC80 concentration determined in n>3 preliminary experiments with 8 pt concentration response curves (n=8)). CaM assay was executed by Flexstation 3 System starting with recording of calcium-sensitive dye fluorescence in bottom-read Flex modus with ex/em=485 nm/525 nm, cut off(em)=515 nm After 20 s, 50 μL of 4-fold concentrated compound dilutions were added to the cells resulting in a final DMSO (Sigma) concentration of 0.1% in the cell plate. CaM signals were monitored for 80 s after additions for detection of potential agonistic activities. Prior to bradykinin stimulus compound- and vehicle-treated cells were incubated for 25 min at 37° C. within the Flexstation System. Then 50 μL of a 5-fold concentrated bradykinin solution (HBSS+, 0.1% DMSO) was added to trigger CaM signals (Read out: Max-Min values) which were measured for 80 s post bradykinin stimulus.
IC50 determinations were performed by 4 parameter logistic model curve fitting of the 8 pt (n=2) compound concentration response curves using XLFIT (IDBS) software.
For orientation: A change in cytosolic calcium serves as a functional read-out for many receptors and channels.

Each structure is given as a SMILES string.

For orientation: IC50 means the concentration needed to halve the response being measured.

For the molecule `Cc1cc(-n2cc(F)cn2)c2cccc(OCc3c(Cl)cc(F)cc3[C@@H]3COCCN3C(=O)COC(F)F)c2n1` [Compound No. 1, (R)-1-(3-(3-chloro-5-fluoro-2-((4-(4-fluoro-1H-pyrazol-1-yl)-2-methylquinolin-8-yloxy)methyl)phenyl)morpholino)-2-(difluoromethoxy)ethanone], the IC50 was at most 25 nM. In the case of `[2H][C@@]1(c2cc(F)cc(Cl)c2COc2cccc3c(-n4cc(F)cn4)cc(C)nc23)COCCN1C(=O)COC(F)F` [Compound No. 1A, 1-[(3R)-3-[3-chloro-5-fluoro-2-({[4-(4-fluoropyrazol-1-yl)-2-methylquinolin-8-yl]oxy}methyl)phenyl](3-deutero)morpholin-4-yl]-2-(difluoromethoxy)ethanone] it was at most 25 nM. Under `Cc1cc(-c2ncnn2C)c2cccc(OCc3c(Cl)cc(F)cc3[C@@H]3COCCN3C(=O)COC(F)F)c2n1` [Compound No. 2, (R)-1-(3-(3-chloro-5-fluoro-2-((2-methyl-4-(1-methyl-1H-1,2,4-triazol-5-yl)quinolin-8-yloxy)methyl)phenyl)morpholino)-2-(difluoromethoxy)ethanone] stands at most 25 nM; under `CC1=N[C@H](c2cc(F)cc(Cl)c2COc2cccc3c(-n4cc(F)cn4)cc(C)nc23)CO1` [Compound No. 3, (R)-4-(3-chloro-5-fluoro-2-((4-(4-fluoro-1H-pyrazol-1-yl)-2-methylquinolin-8-yloxy)methyl)phenyl)-2-methyl-4,5-dihydrooxazole], 501 to 5000 nM; under `Cc1cc(-n2cc(F)cn2)c2cccc(OCc3c(Cl)cc(F)cc3[C@@H]3COCC(=O)N3)c2n1` [compound 4], 501 to 5000 nM. Take `Cc1cc(-n2cc(F)cn2)c2cccc(OCc3c(Cl)cc(F)cc3[C@@H]3COCCN3)c2n1` [compound 5]: the concentration for half-maximal inhibition (IC50) lay in the range of 501 to 5000 nM. With `Cc1cc(-n2cc(F)cn2)c2cccc(OCc3c(Cl)cc(F)cc3[C@@H]3COCCN3C(=O)[C@@H](C)O)c2n1` [compound 6], the IC50 was in the range of 26 to 500 nM.

As for `Cc1cc(-n2cc(F)cn2)c2cccc(OCc3c(Cl)cc(F)cc3[C@@H]3COCCN3C(=O)C(C)(C)O)c2n1` [compound 7], the IC50 is 26 to 500 nM. In the case of `Cc1cc(-n2cc(F)cn2)c2cccc(OCc3c(Cl)cc(F)cc3[C@@H]3COCCN3C(=O)c3cnco3)c2n1` [compound 8] it was 26 to 500 nM. In the case of `Cc1cc(-c2ncnn2C)c2cccc(OCc3c(Cl)cc(F)cc3[C@@H]3COCCN3C(=O)C(C)(C)O)c2n1` [compound 9] it was 26 to 500 nM; in that of `Cc1cc(-c2ncnn2C)c2cccc(OCc3c(Cl)cc(F)cc3[C@@H]3COCCN3C(=O)[C@H](C)O)c2n1` [compound 10], at most 25 nM. In the case of `Cc1cc(-c2ncnn2C)c2cccc(OCc3c(Cl)cc(F)cc3[C@@H]3COCCN3C(=O)c3cnco3)c2n1` [compound 11] it was at most 25 nM; in that of `Cc1cc(-c2ncnn2C)c2cccc(OCc3c(Cl)cc(F)cc3[C@@H]3COCC(=O)N3)c2n1` [compound 12], 26 to 500 nM. Turning to `Cc1cc(-c2ncnn2C)c2cccc(OCc3c(Cl)cc(F)cc3[C@@H]3COCCN3)c2n1` [compound 13], the IC50 lay within 26 to 500 nM.

The values are drawn from patent US12391681B2, “(R)-3-(3-chloro-5-fluoro-2-((4-(1h-pyrazol-1-yl)-2-methylquinolin-8-yloxy)methyl)phenyl)morpholine derivatives and related compounds as bradykinin (BK) B2 receptor antagonist for treating skin diseases” (Pharvaris GmbH, priority 2019, dated 2025).
